The values below come from US20100292306A1, “Compositions And Methods For The Treatment Of Muscular Dystrophy” (priority 2005, published 2010).

Residues, ends and D or L forms follow the SMILES beside them. *: point of attachment. Cbz = O=C(OCc1ccccc1)*

The subject of assay [1] is IκB-α and phospho-IκB-α. Put plainly: Western blot of phospho-IκB-α and IκB-α in costal diaphragm after proteasomal inhibition with MG132. Type of assay: in vivo, nondystrophic and mdx mice. The protocol: The influence of the proteasomal inhibitor MG132 on the cytosolic expression of IκB-α and Pi-IκB-α was determined by administering 5 month nondystrophic and mdx mice MG132 (1 mg/kg, intraperitoneal) or vehicle (DMSO) in vivo 2 h prior to euthanization and isolation of the diaphragm. The individual intact costal diaphragms from the MG132 group were then exposed to MG132 ([…] in HEPES Ringer) in vitro for another 2 h while the costal diaphragms from the vehicle group were exposed to HEPES Ringer and vehicle. This procedure of combining in vivo and in vitro exposure to MG was used to maximize inhibition of proteasomal degradation and facilitate the cytosolic accumulation of Pi-IκB-α and IκB-α in the MG132 treated preparations. […]
Cytosolic and nuclear extracts were obtained by homogenizing individual muscles at a concentration of 1 mg wet weight per 18 μl of low salt lysis buffer (LSLB: 10 mM HEPES, 10 mM KCl, 1.5 mM MgCl2, 0.1 mM EDTA, 0.1 mM EGTA, 1 mM dithiothreitol, 1.0 mg/ml benzamidine, 0.5 mM phenylmethylsulfonyl fluoride, 4.0 μl/ml protease inhibitor cocktail Sigma #8340, 10 μl/ml phosphatase inhibitor Sigma #P2850, pH 7.9. See Kumar et al. (2003); Carlson et al. (2005)). […] Pellets were subsequently washed twice (50 μl of LSLB) and resuspended in ice-cold high-salt lysis buffer (HSLB: 20 mM HEPES (pH 7.9), 420 mM NaCl, 1 mM EDTA, 1 mM EGTA, 25% glycerol, 1 mM dithiothreitol, 0.5 mM phenylmethylsulfonyl fluoride, 1.0 mg/ml benzamidine, 4 μl/ml protease inhibitor cocktail, 10 μl/ml phosphate inhibitor; 4 μl/mg wet […] and centrifuged (13,000 rpm, 6 min, 4° C.). The supernatant (nuclear extract) was stored at −80° C. Protein concentration was determined using the Bradford assay (Bio-Rad 500-0006) in a standard 96 well plate.
Muscle proteins and immunoprecipitates (20 μg) were separated by SDS-PAGE under reducing conditions and transferred to PVDF membranes (Bio-Rad). […] Equal loading of proteins for cytosolic and whole cell extracts was evaluated by developing a blot for GAPDH. […]
A general note: In western blotting, separated proteins are transferred to a membrane and probed.

The test system of assay [2] is mdx mice. Put plainly: Noninvasive whole body tension (WBT) measurement of forward pulling tensions. The assay is classed as in vivo. From the text: FIG. 18 presents individual “forward pulling tensions” (FPTs; upward deflections) recorded from a PDTC-treated mouse (Series 2) using the whole body tension (WBT) technique (Carlson and Makiejus, 1990). The rank order of FPTs from highest to lowest is indicated by the numbers in the figure. […] In the Series 2 experiments, WBT measurements were obtained from each of the saline-injected and PDTC-injected mice on days 0, 9, 21 and 40 of the experiment.
As a first step in examining the potential effects of PDTC treatment on WBT tension development, the slope of the decline in FPTs was evaluated for each recording session for each mouse examined in the Series 2 experiments (FIG. 19A, 19B). This measure essentially provides a “fatigue index” (FI) since the slope of the decline in FPTs is a direct measure of the average magnitude of the decline in FPT per individual pull for rank-ordered pulls number 2 through 10. If 10 individual pulls obtained during the recording session have identical magnitudes representing the highest FPT, then the FI equals 0. In contrast, a 50% reduction in FPT per pull would produce an FI equal to −0.5.
To examine the potential effect of PDTC treatment on FI in age matched adult mdx mice, a pre-treatment FU was obtained during a typical recording session from each of 10 mdx mice used in the Series 2 investigations (age 9.5 to 16 months at beginning of study). Five of the mice were subsequently treated with daily injections of vehicle (HEPES buffered Ringer's solution) and 5 of the mice were treated with daily injections of 50 mg/kg PDTC. Recordings for each of the mice were subsequently obtained on days 9, 21, and 40 of the treatment period (e.g., FIG. 19). To determine the potential effects of treatment on FI, the FIs obtained on days 9, 21, and 40 (e.g., FIG. 19) were each normalized to the pre-treatment FI for each of the 10 mice used in the study. […] A decrease in the FI indicating a reduction in the average loss of tension per pull during the course of the study would produce normalized FIs less than one, no change in FI would be associated with normalized FIs equal to 1.0, and increases in FI would produce normalized FIs greater than 1.0.
Mdx (C57 Bl10-mdx) and nondystrophic (C57Bl10-SnJ) mice were obtained from Jackson laboratories and bred under conditions approved by the Institutional Animal Care and Use Committee (IACUC). All studies were performed in accordance with the guidelines provided by the IACUC. Male and female PDTC treated mdx mice received daily intraperitoneal (ip) injections of 50 mg/kg pyrollidine dithiocarbamate (PDTC; Sigma P8765) dissolved in sterile-filtered (0.2 μm) HEPES-buffered Ringers solution (147.5 mM NaCl, 5 mM KCl, 2 mM CaCl2, 11 mM glucose, 5 mM Hepes, pH 7.35). Age- and gender-matched groups of vehicle-treated mice received corresponding injections of HEPES Ringers. See Carlson et al., 2005. The PDTC experiments were conducted on two series of mature adult mdx mice (9.5-16 month; 19-20 months) and on a series of young adult (1 month) mice. In each case, the mice in the experimental and vehicle-treated groups were matched according to age and gender with an equal number of males and females in each group. WBT tension measurements were obtained prior to initiating treatment and on multiple occasions following at least 3 weeks (20 days) of treatment.
A group of 30 day-old mdx mice were exposed to daily ip injections (30 day) of 40 mg/kg UDCA (Sigma #5127; 2 mg/ml; N=12 experimental) in an isotonic saline vehicle (1.02% NaCl, pH 8.4,) or a synthetic taurine derivative of UDCA (tauroursodeoxycholic acid, TUDCA, SpA Laboratorio Farmacologico, Cenate Sotto, Italy; 6 mg/ml; N=4 experimental) administered in a saline vehicle (NaCl 6 g/l, KCl 0.3 g/l, CaCl2 0.2 g/l, Na acetate 4 g/l, 300 mosM/l, pH 6.1).
WBT measurements were obtained as indicated in Examples 5 through 7 by placing an approximately 0.5 inch square piece of adhesive tape around the tail about 1 inch from the tip. […]

For assay [3], the system named is nuclear p65 activation. Put plainly: TransAM NF-κB ELISA of nuclear p65 activation in mdx costal diaphragm. The assay is classed as in vivo, mdx mice. The protocol:
Cytosolic and nuclear fractions were obtained from isolated costal diaphragm using techniques that were slightly modified from Kumar and Boriek (2003). The muscles were removed from vehicle and drug-treated euthanized mdx mice at the end of the treatment period, and were flash-frozen and stored at −80° C. for a period of 1 to 4 weeks. The muscles were then thawed and weighed before being homogenized on ice using a mortar and pestle in low salt lysis (LSL) buffer (1 mg muscle wet weight/18 μl solution; in mM: 10 HEPES, 10 KCl, 1.5 MgCl2, 0.1 EDTA, 0.1 EGTA, 1 dithiothreitol (DTT), 0.5 phenylmethylsulfonylfluoride (PMSF); 0.5 mg/ml benzamidine, 4.0 μl/ml protease inhibitor cocktail Sigma #8340 (PIC) to produce the following final concentrations—2.1 μg/ml leupeptin, 3.85 μg/ml aprotinin, 0.416 mM AEBSF (Sigma A8456), 16 μM bestatin, 6 μM pepstatin A, 5.6 μM E64; pH 7.9). To lyse the cells, the ground tissue was then subjected to 2 freeze-thaw cycles (5 min freeze on dry ice followed by thawing at room temperature), and was subsequently vortexed and centrifuged (13,000 rpm, 15 s). The supernatant cytosolic extract was immediately frozen (−80° C.) for subsequent analyses as needed, while the nuclear pellet was washed in 50 μl LSL (2 times) before being re-suspended on ice in a high salt nuclear extraction buffer (in mM: 20 HEPES, 420 NaCl, 1 EDTA, 1 EGTA, 1 DTT, 0.5 PMSF; 25% glycerol, 0.5 mg/ml benzamidine, 4.0 μl/ml PIC; pH 7.9) at a ratio of 4 μl of solution per mg muscle wet weight. Preparations were incubated on ice for 30 min and vortexed for 10 s every 5 min before being centrifuged (13,000 rpm, 6 min) at 4° C. The supernatant nuclear extract was then removed and frozen (−80° C.) for subsequent analyses. Potential contamination of nuclear extracts with cytoplasmic proteins was less than 5%. Protein determinations for each fraction were obtained using the Bradford assay.
The Trans-Am assay (Active Motif; Carlsbad, Calif.) was used to determine nuclear NF-κB activation in nuclear fractions which were applied to the 96 well ELISA plates at 2-20 μg protein. The p65 primary antibody (catalogue number 40096) was used to detect p65 bound to oligonucleotide in vehicle and drug-treated preparations in accordance with kit instructions. A nuclear extract from Jurkat cells was routinely run as a positive control in association with each set of control and experimental samples.
Horizontal dashed lines indicate average levels observed in nondystrophic, vehicle, and UDCA treated preparations as indicated. In each case, percent recovery is determined by dividing the mean improvement observed in the UDCA treated preparation (UDCA-vehicle) from the deficit observed in the vehicle-treated preparation (nondystrophic-vehicle mdx). Mdx mice were treated for 30 days beginning at 1 month of age. Horizontal dashed lines in (A) and (B) representing nondystrophic values were obtained from a cohort of nondystrophic mice at 2 months of age. […] The results were obtained from two separate groups of vehicle and UDCA treated preparations that were assayed using two different 96 well plates. For each plate, the absorbance for each sample was normalized to the average absorbance determined for the vehicle-treated preparations on that plate. […] Millman et al., 2007. N is the number of mice and preparations in each condition. Shown are the means and standard errors. […] indicate p<0.05 and p<0.01, respectively, between vehicle and UDCA treated preparations. […]
For orientation: In an ELISA, binding on a coated surface is turned into a signal by an enzyme label.

Where [4] appears, read: UDCA 30 days from 1 month of age.
The mark [5] stands for this setting: UDCA 30 days, (UDCA-vehicle)/(nondystrophic-vehicle mdx).

`CC(C)C[C@@H](C=O)NC(=O)[C@H](CC(C)C)NC(=O)[C@H](CC(C)C)NC(=O)OCc1ccccc1` [MG132, Z-leu-leu-leu-al] (Cbz-Leu-Leu-Leu-aldehyde): the “increase in proportion of phosphorylated IκB-α” value in assay [1] (mdx diaphragm cytosolic extracts, not significant) stood at 1.3 fold. Also, in assay [1] (nondystrophic and mdx preparations), the “expression of cytosolic IκB-α” value was “not significantly increased”. The “proportion of phosphorylated IκB-α” value in assay [1] (nondystrophic diaphragm, cytosol and whole cell extracts, MG132 1 mg/kg ip 2 h then 50 mM in vitro 2 h, p<0.05) is listed as “doubling”.
In the case of `C[C@H](CCC(=O)NCCS(=O)(=O)O)[C@H]1CC[C@H]2[C@@H]3[C@@H](O)C[C@@H]4C[C@H](O)CC[C@]4(C)[C@H]3CC[C@]12C` [TUDCA, tauroursodeoxycholic acid], the “effectiveness compared with UDCA” value in assay [2] (daily ip 30 days in 30 day-old mdx mice, TUDCA 6 mg/ml, N=4) is “No differences”.
Consider `C[C@H](CCC(=O)O)[C@H]1CC[C@H]2[C@@H]3[C@@H](O)C[C@@H]4C[C@H](O)CC[C@]4(C)[C@H]3CC[C@]12C` [UDCA, ursodeoxycholic acid], for which, in assay [3] (30 day UDCA treatment), the “recovery towards values in mature nondystrophic preparations” value is 42%. Also, in assay [3] (30 day UDCA treatment, p<0.05), the “reduction in nuclear p65 activation” value is 34%. Further, in assay [3] (setting [4]), the “mean absorbance relative to vehicle-treated preparations” value was “approximately 66%”. In addition, in assay [2] (setting [4]), the “increase in WBT5 above vehicle-treated” value was “about 21%” and the “increase in WBT10 above vehicle-treated” value is “about 21%”. Also, in assay [2] (setting [5]), the “recovery of the dystrophic deficit in WBT5” value stood at 27% and the “recovery of the dystrophic deficit in WBT10” value came to 24%.
